Source: the supplement of paper PMC10307832

Key:
Test in all cases: relative viability (nuclei count vs DMSO), 5 days (fraction); higher = more cells survive
[1] = compound: C[C@H]([C@@H](C(=O)N)NC(=O)[C@@H]1CSSC[C@@H](C(=O)N[C@H](C(=O)N[C@@H](C(=O)N[C@H](C(=O)N1)CCCCN)CC2=CNC3=CC=CC=C32)CC4=CC=C(C=C4)O)NC(=O)[C@@H](CC5=CC=CC=C5)N)O [CAP-232] + CC1(C)CCC(c2ccc(Cl)cc2)=C(CN2CCN(c3ccc(C(=O)NS(=O)(=O)c4ccc(N[C@H](CCN5CCOCC5)CSc5ccccc5)c(S(=O)(=O)C(F)(F)F)c4)cc3)CC2)C1 [Navitoclax] (partner 0.5 µM)
In short: (§1)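 Relative viability is defined as nuclei in treated wells over nuclei in vehicle wells. Duplicate plates were run and medians reported. Lung cancer cell lines in 1536-well plates were dosed by pin tool one day after seeding, with one drug or with a fixed anchor-drug dose plus five library-drug doses (not always all listed) in √10 steps, and nuclei were counted after 5 days.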

[2] = compound: C[C@H]([C@@H](C(=O)N)NC(=O)[C@@H]1CSSC[C@@H](C(=O)N[C@H](C(=O)N[C@@H](C(=O)N[C@H](C(=O)N1)CCCCN)CC2=CNC3=CC=CC=C32)CC4=CC=C(C=C4)O)NC(=O)[C@@H](CC5=CC=CC=C5)N)O [CAP-232] + COc1cc2c(Oc3ccc(NC(=O)C4(C(=O)Nc5ccc(F)cc5)CC4)cc3F)ccnc2cc1OCCCN1CCOCC1 [Foretinib] (partner 0.25 µM)
In short: as §1

[3] = compound: C[C@H]([C@@H](C(=O)N)NC(=O)[C@@H]1CSSC[C@@H](C(=O)N[C@H](C(=O)N[C@@H](C(=O)N[C@H](C(=O)N1)CCCCN)CC2=CNC3=CC=CC=C32)CC4=CC=C(C=C4)O)NC(=O)[C@@H](CC5=CC=CC=C5)N)O [CAP-232] + Cc1cc(Nc2cc(N3CCN(C)CC3)nc(Sc3ccc(NC(=O)C4CC4)cc3)n2)n[nH]1 [Tozasertib] (partner 0.1 µM)
In short: as §1

[4] = compound: C[C@H]([C@@H](C(=O)N)NC(=O)[C@@H]1CSSC[C@@H](C(=O)N[C@H](C(=O)N[C@@H](C(=O)N[C@H](C(=O)N1)CCCCN)CC2=CNC3=CC=CC=C32)CC4=CC=C(C=C4)O)NC(=O)[C@@H](CC5=CC=CC=C5)N)O [CAP-232] + Cc1nc(Nc2ncc(C(=O)Nc3c(C)cccc3Cl)s2)cc(N2CCN(CCO)CC2)n1 [Dasatinib] (partner 0.075 µM)
In short: as §1

[5] = compound: C[C@H]([C@@H](C(=O)N)NC(=O)[C@@H]1CSSC[C@@H](C(=O)N[C@H](C(=O)N[C@@H](C(=O)N[C@H](C(=O)N1)CCCCN)CC2=CNC3=CC=CC=C32)CC4=CC=C(C=C4)O)NC(=O)[C@@H](CC5=CC=CC=C5)N)O [CAP-232] + Nc1ncn([C@H]2C[C@H](O)[C@@H](CO)O2)c(=O)n1 [Decitabine] (partner 2 µM)
In short: as §1

LCLC-97TM1
relative viability ([1]; first compound 0.4 µM): 0.408 | relative viability ([1]; first compound 1.265 µM): 0.294 | relative viability ([1]; first compound 4 µM): 0.397 | relative viability ([1]; first compound 12.65 µM): 0.366 | relative viability ([2]; first compound 0.4 µM): 0.879 | relative viability ([2]; first compound 1.265 µM): 0.9 | relative viability ([2]; first compound 4 µM): 1.01 | relative viability ([2]; first compound 12.65 µM): 0.925 | relative viability ([3]; first compound 0.4 µM): 0.22 | relative viability ([3]; first compound 1.265 µM): 0.189 | relative viability ([3]; first compound 4 µM): 0.204 | relative viability ([3]; first compound 12.65 µM): 0.194 | relative viability ([4]; first compound 0.4 µM): 0.896 | relative viability ([4]; first compound 1.265 µM): 0.889 | relative viability ([4]; first compound 4 µM): 0.82 | relative viability ([4]; first compound 12.65 µM): 0.851 | relative viability ([5]; first compound 0.4 µM): 0.195 | relative viability ([5]; first compound 1.265 µM): 0.211 | relative viability ([5]; first compound 4 µM): 0.192 | relative viability ([5]; first compound 12.65 µM): 0.237

LK-2
relative viability ([1]; first compound 0.4 µM): 0.733 | relative viability ([1]; first compound 1.265 µM): 0.791 | relative viability ([1]; first compound 4 µM): 1.01 | relative viability ([1]; first compound 12.65 µM): 0.622 | relative viability ([2]; first compound 0.4 µM): 1.4 | relative viability ([2]; first compound 1.265 µM): 1.22 | relative viability ([2]; first compound 4 µM): 1.54 | relative viability ([2]; first compound 12.65 µM): 1.19 | relative viability ([3]; first compound 0.4 µM): 0.147 | relative viability ([3]; first compound 1.265 µM): 0.199 | relative viability ([3]; first compound 4 µM): 0.163 | relative viability ([3]; first compound 12.65 µM): 0.147 | relative viability ([4]; first compound 0.4 µM): 0.295 | relative viability ([4]; first compound 1.265 µM): 0.133 | relative viability ([4]; first compound 4 µM): 0.202 | relative viability ([4]; first compound 12.65 µM): 0.201 | relative viability ([5]; first compound 0.4 µM): 0.357 | relative viability ([5]; first compound 1.265 µM): 0.234 | relative viability ([5]; first compound 4 µM): 0.37 | relative viability ([5]; first compound 12.65 µM): 0.302

LOU-NH91
relative viability ([1]; first compound 0.4 µM): 0.729 | relative viability ([1]; first compound 1.265 µM): 0.734 | relative viability ([1]; first compound 4 µM): 0.665 | relative viability ([1]; first compound 12.65 µM): 0.437 | relative viability ([2]; first compound 0.4 µM): 0.994 | relative viability ([2]; first compound 1.265 µM): 0.903 | relative viability ([2]; first compound 4 µM): 0.86 | relative viability ([2]; first compound 12.65 µM): 0.919 | relative viability ([3]; first compound 0.4 µM): 0.574 | relative viability ([3]; first compound 1.265 µM): 0.68 | relative viability ([3]; first compound 4 µM): 0.618 | relative viability ([3]; first compound 12.65 µM): 0.511 | relative viability ([4]; first compound 0.4 µM): 0.593 | relative viability ([4]; first compound 1.265 µM): 0.548 | relative viability ([4]; first compound 4 µM): 0.618 | relative viability ([4]; first compound 12.65 µM): 0.437 | relative viability ([5]; first compound 0.4 µM): 0.787 | relative viability ([5]; first compound 1.265 µM): 0.787 | relative viability ([5]; first compound 4 µM): 0.8 | relative viability ([5]; first compound 12.65 µM): 0.594

LU99A
relative viability ([1]; first compound 0.4 µM): 1.03 | relative viability ([1]; first compound 1.265 µM): 0.818 | relative viability ([1]; first compound 4 µM): 0.864 | relative viability ([1]; first compound 12.65 µM): 0.78 | relative viability ([2]; first compound 0.4 µM): 0.811 | relative viability ([2]; first compound 1.265 µM): 0.787 | relative viability ([2]; first compound 4 µM): 0.977 | relative viability ([2]; first compound 12.65 µM): 0.736 | relative viability ([3]; first compound 0.4 µM): 0.253 | relative viability ([3]; first compound 1.265 µM): 0.263 | relative viability ([3]; first compound 4 µM): 0.296 | relative viability ([3]; first compound 12.65 µM): 0.287 | relative viability ([4]; first compound 0.4 µM): 0.769 | relative viability ([4]; first compound 1.265 µM): 0.493 | relative viability ([4]; first compound 4 µM): 0.675 | relative viability ([4]; first compound 12.65 µM): 0.492 | relative viability ([5]; first compound 0.4 µM): 0.861 | relative viability ([5]; first compound 1.265 µM): 0.806 | relative viability ([5]; first compound 4 µM): 1.1 | relative viability ([5]; first compound 12.65 µM): 0.973

LXF-289
relative viability ([1]; first compound 0.4 µM): 0.998 | relative viability ([1]; first compound 1.265 µM): 0.956 | relative viability ([1]; first compound 4 µM): 0.964 | relative viability ([1]; first compound 12.65 µM): 0.959 | relative viability ([2]; first compound 0.4 µM): 0.985 | relative viability ([2]; first compound 1.265 µM): 0.965 | relative viability ([2]; first compound 4 µM): 1.01 | relative viability ([2]; first compound 12.65 µM): 0.995 | relative viability ([3]; first compound 0.4 µM): 0.206 | relative viability ([3]; first compound 1.265 µM): 0.176 | relative viability ([3]; first compound 4 µM): 0.213 | relative viability ([3]; first compound 12.65 µM): 0.149 | relative viability ([4]; first compound 0.4 µM): 0.224 | relative viability ([4]; first compound 1.265 µM): 0.194 | relative viability ([4]; first compound 4 µM): 0.238 | relative viability ([4]; first compound 12.65 µM): 0.21 | relative viability ([5]; first compound 0.4 µM): 0.331 | relative viability ([5]; first compound 1.265 µM): 0.36 | relative viability ([5]; first compound 4 µM): 0.391 | relative viability ([5]; first compound 12.65 µM): 0.343

NCI-H23
relative viability ([1]; first compound 0.4 µM): 0.806 | relative viability ([1]; first compound 1.265 µM): 0.861 | relative viability ([1]; first compound 4 µM): 0.982 | relative viability ([1]; first compound 12.65 µM): 0.713 | relative viability ([2]; first compound 0.4 µM): 0.926 | relative viability ([2]; first compound 1.265 µM): 0.883 | relative viability ([2]; first compound 4 µM): 0.718 | relative viability ([2]; first compound 12.65 µM): 0.802 | relative viability ([3]; first compound 0.4 µM): 0.416 | relative viability ([3]; first compound 1.265 µM): 0.386 | relative viability ([3]; first compound 4 µM): 0.384 | relative viability ([3]; first compound 12.65 µM): 0.309 | relative viability ([4]; first compound 0.4 µM): 0.714 | relative viability ([4]; first compound 1.265 µM): 0.609 | relative viability ([4]; first compound 4 µM): 0.891 | relative viability ([4]; first compound 12.65 µM): 0.844 | relative viability ([5]; first compound 0.4 µM): 0.293 | relative viability ([5]; first compound 1.265 µM): 0.295 | relative viability ([5]; first compound 4 µM): 0.296 | relative viability ([5]; first compound 12.65 µM): 0.295

NCI-H322M
relative viability ([1]; first compound 0.4 µM): 1.32 | relative viability ([1]; first compound 1.265 µM): 1.26 | relative viability ([1]; first compound 4 µM): 1.36 | relative viability ([1]; first compound 12.65 µM): 1.13 | relative viability ([2]; first compound 0.4 µM): 1.05 | relative viability ([2]; first compound 1.265 µM): 0.962 | relative viability ([2]; first compound 4 µM): 0.952 | relative viability ([2]; first compound 12.65 µM): 0.985 | relative viability ([3]; first compound 0.4 µM): 0.448 | relative viability ([3]; first compound 1.265 µM): 0.5 | relative viability ([3]; first compound 4 µM): 0.515 | relative viability ([3]; first compound 12.65 µM): 0.498 | relative viability ([4]; first compound 0.4 µM): 0.275 | relative viability ([4]; first compound 1.265 µM): 0.237 | relative viability ([4]; first compound 4 µM): 0.256 | relative viability ([4]; first compound 12.65 µM): 0.34 | relative viability ([5]; first compound 0.4 µM): 0.706 | relative viability ([5]; first compound 1.265 µM): 0.654 | relative viability ([5]; first compound 4 µM): 0.701 | relative viability ([5]; first compound 12.65 µM): 0.704
